In PMC12136031 (Science Advances, 2025):

Legend:
TFEB = assay: Immunoblot of TFEB in OC43-infected BEAS-2B cells; assay type: cell-based, human; conditions: for TFEB protein during viral infection: OC43, cotreatment with inhibitors of ubiquitin-proteasome system; for Decline in TFEB protein levels during viral infection: OC43, mTORC1 inhibition (10 nM)
[1] = target: T1, DCAF7 recombinant protein, P61962; assay: streptavidin pull-down (peptide binding assay), DCAF7 immunoblot densitometry; conditions: chain shown with the change; n = 3; parent: est. 1.0; read off a plot
T1 chain: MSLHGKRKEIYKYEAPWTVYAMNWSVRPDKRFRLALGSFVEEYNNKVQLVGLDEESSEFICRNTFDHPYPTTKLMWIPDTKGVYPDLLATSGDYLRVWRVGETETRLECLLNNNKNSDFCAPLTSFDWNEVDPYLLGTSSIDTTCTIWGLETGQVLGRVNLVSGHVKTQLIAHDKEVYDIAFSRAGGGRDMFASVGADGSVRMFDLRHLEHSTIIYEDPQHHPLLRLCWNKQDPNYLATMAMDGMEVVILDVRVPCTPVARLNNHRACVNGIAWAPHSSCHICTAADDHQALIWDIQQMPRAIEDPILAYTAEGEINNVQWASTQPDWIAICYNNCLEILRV

Molecule: NS(=O)(=O)OC[C@@H]1C[C@@H](n2ccc3c(N[C@H]4CCc5ccccc54)ncnc32)C[C@@H]1O [MLN4924]
- TFEB protein during viral infection (TFEB): substantially preserved

Molecule: NS(=O)(=O)OC[C@H]1C[C@@H](Nc2ccnc3cc(-c4cccc(SC(F)(F)F)c4)nn23)[C@H](O)[C@@H]1O [TAK-243]
- TFEB protein during viral infection (TFEB): substantially preserved

Molecule: CCC(=O)N1CCN(c2ccc(-n3c(=O)ccc4cnc5ccc(-c6cnc7ccccc7c6)cc5c43)cc2C(F)(F)F)CC1 [Torin1]
- Decline in TFEB protein levels during viral infection (TFEB): did not rescue

Molecule: CC(C)C[C@H](NC(=O)[C@H](CCc1ccccc1)NC(=O)CN1CCOCC1)C(=O)N[C@@H](Cc1ccccc1)C(=O)N[C@@H](CC(C)C)C(=O)[C@@]1(C)CO1 [carfilzomib]
- TFEB protein during viral infection (TFEB): substantially preserved

Molecule: CO[C@H]1C[C@@H]2CC[C@@H](C)[C@@](O)(O2)C(=O)C(=O)N2CCCC[C@H]2C(=O)O[C@H]([C@H](C)C[C@@H]2CC[C@@H](O)[C@H](OC)C2)CC(=O)[C@H](C)/C=C(\C)[C@@H](O)[C@@H](OC)C(=O)[C@H](C)C[C@H](C)/C=C/C=C/C=C/1C [rapamycin]
- Decline in TFEB protein levels during viral infection (TFEB): did not rescue

Molecule: GNDAPNDPMA [Biotinylated TFEB peptide, region 136 to 145, unmodified sequence (I), P19484 S138D; S142D]
- response [1]: 2.9

Molecule: GNAAPNAPMA [Biotinylated TFEB peptide, region 136 to 145, unmodified sequence (I), P19484 S138A; S142A]
- response [1]: 0.5
